ChEMBL document CHEMBL5584334, “Discovery of a Covalent Inhibitor of Pro-Caspase-1 Zymogen Blocking NLRP3 Inflammasome Activation and Pyroptosis” (J Med Chem, 2024)
Calls of active or inactive are those of the source. The rule behind the calls is not given here.

Experiments:
Caspase-1 (Homo sapiens) = target: T1, Caspase-1 (Homo sapiens) (UniProt P29466); experiment: Inhibition of recombinant human caspase-1 expressed in Escherichia coli BL21 cells assessed as remaining activity at 10 uM using […] as substrate incubated for 30 mins relative to control
T1 sequence (whole entry): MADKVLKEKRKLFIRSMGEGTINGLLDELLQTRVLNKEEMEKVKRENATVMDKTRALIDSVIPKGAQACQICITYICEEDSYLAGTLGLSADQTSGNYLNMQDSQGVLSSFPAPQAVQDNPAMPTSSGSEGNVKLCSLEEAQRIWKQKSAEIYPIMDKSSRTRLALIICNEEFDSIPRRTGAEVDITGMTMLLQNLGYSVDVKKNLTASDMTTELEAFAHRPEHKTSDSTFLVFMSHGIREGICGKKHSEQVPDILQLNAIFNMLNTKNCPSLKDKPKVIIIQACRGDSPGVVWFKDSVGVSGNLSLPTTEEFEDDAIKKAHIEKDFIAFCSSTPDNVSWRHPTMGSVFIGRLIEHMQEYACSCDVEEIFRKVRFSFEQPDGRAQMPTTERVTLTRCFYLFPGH

[1] = target: NACHT, LRR and PYD domains-containing protein 3 (Mus musculus) (UniProt Q8R4B8); experiment: Inhibition of NLRP3 inflammasome activation activation in LPS/nigericin stimulated mouse J774.A1 cells assessed as reduction in IL-1beta production pretreated with LPS for 3 hrs prior to compound addition for 30 mins followed by nigericin addition and measured after 45 mins by ELISA; type: cell-based; conditions: dose 0.001-2000 nM, time 75.0 min
NACHT, LRR and PYD domains-containing protein 3 (Mus musculus), sequence (Q8R4B8 whole entry, the tested form may be a part): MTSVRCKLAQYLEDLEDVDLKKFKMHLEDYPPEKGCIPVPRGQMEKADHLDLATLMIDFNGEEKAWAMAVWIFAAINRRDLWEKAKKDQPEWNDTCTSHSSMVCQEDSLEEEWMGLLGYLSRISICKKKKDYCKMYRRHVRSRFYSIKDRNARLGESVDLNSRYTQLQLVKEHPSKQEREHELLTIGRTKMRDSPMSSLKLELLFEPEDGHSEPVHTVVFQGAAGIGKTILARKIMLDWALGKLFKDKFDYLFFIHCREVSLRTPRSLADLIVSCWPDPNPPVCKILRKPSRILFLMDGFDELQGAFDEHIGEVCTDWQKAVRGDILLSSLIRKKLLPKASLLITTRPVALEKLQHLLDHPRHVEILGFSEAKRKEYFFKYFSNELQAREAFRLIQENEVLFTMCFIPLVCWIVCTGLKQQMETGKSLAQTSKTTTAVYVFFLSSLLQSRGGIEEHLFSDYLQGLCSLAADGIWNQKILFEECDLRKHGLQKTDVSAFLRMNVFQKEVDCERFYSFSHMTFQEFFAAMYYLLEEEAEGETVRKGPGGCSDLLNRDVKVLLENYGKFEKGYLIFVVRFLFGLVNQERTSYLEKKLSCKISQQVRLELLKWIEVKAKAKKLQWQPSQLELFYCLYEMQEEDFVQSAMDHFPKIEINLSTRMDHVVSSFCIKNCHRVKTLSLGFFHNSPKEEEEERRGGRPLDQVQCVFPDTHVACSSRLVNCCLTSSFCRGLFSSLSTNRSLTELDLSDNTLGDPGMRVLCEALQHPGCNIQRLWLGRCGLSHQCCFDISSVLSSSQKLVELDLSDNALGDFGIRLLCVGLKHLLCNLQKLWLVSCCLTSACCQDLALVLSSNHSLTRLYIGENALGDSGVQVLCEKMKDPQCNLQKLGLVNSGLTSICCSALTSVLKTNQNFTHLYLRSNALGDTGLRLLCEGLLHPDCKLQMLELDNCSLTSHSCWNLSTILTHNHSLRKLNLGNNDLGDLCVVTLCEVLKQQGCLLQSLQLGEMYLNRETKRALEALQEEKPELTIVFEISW

J774.A1 [2] = experiment: Cytotoxicity against mouse J774.A1 cells at 2 uM incubated for 1 to 12 hrs by CCK-8 method; type: toxicity, cell-based; conditions: j774.a1, 2 µM, time 1-12 hrs
[3] = target: NACHT, LRR and PYD domains-containing protein 3 (Mus musculus) (UniProt Q8R4B8); experiment: Inhibition of NLRP3 inflammasome activation in LPS/MSU stimulated mouse J774.A1 cells assessed as reduction in IL-1beta production incubated for 4 hrs by ELISA; type: cell-based
THP-1 [4] = experiment: Effect on pro-caspase 1 protein expression in LPS/nigericin stimulated human THP-1 cells supernatant at 0.5 to 2 uM by Western blotting analysis; type: functional, cell-based; conditions: dose 0.5-2 µM
THP-1 [5] = experiment: Inhibition of p20 fragment of caspase 1 protein expression in LPS/MSU stimulated human THP-1 cells supernatant by Western blotting analysis; type: functional, cell-based
THP-1 [6] = experiment: Effect on pro-1L-1beta protein expression in LPS/ATP stimulated human THP-1 cells supernatant by Western blotting analysis; type: functional, cell-based
Caspase-3 (Mus musculus) = target: T2, Caspase-3 (Mus musculus) (UniProt P70677); experiment: Inhibition of cisplatin induced caspase-3 activation in mouse J774.A1 cells at 2 uM preincubated for 30 mins followed by cisplatin addition and incubated overnight; type: cell-based
T2 sequence (whole entry): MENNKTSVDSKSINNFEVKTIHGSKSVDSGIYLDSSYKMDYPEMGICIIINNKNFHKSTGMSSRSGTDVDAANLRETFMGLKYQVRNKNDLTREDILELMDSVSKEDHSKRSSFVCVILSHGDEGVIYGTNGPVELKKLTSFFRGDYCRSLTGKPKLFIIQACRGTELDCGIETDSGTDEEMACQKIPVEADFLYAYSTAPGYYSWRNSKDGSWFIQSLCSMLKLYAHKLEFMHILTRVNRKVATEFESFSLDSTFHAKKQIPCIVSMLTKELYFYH

J774.A1 [7] = experiment: Downregulation of IKKalpha/beta phosphorylation in mouse J774.A1 cells at 0.5 to 2 uM preincubated for 30 mins followed by LPS addition and measured after 2 hrs by Western blotting analysis; type: functional, cell-based; conditions: dose 0.5-2 µM, time 2.5 hrs
J774.A1 [8] = experiment: Inhibition of NF-kappaB signaling in LPS-stimulated mouse J774.A1 cells at 1 uM preincubated for 30 mins followed by LPS addition and measured after 2 hrs by Western blotting analysis; type: cell-based; conditions: time 2.5 hrs
J774.A1 [9] = experiment: Inhibition of ASC to pro-caspase-1 interaction in LPS/nigericin stimulated mouse J774.A1 cells; type: cell-based
J774.A1 [10] = experiment: Inhibition of mitochondrial damage in LPS/nigericin stimulated mouse J774.A1 cells; type: functional, cell-based
J774.A1 [11] = experiment: Effect on ASC speck formation in mouse J774.A1 cells at 2 uM pretreated with LPS for 3 hrs prior to compound addition followed by nigericin stimulation; type: functional, cell-based
[12] = test system: Caspase-1 (Homo sapiens), P29466 [C169A]; experiment: Binding affinity to recombinant caspase-1 C169A mutant (unknown origin) at 2 uM by SDS-PAGE analysis
Caspase-1 (Homo sapiens), P29466 [C169A], sequence (P29466 whole entry C169A): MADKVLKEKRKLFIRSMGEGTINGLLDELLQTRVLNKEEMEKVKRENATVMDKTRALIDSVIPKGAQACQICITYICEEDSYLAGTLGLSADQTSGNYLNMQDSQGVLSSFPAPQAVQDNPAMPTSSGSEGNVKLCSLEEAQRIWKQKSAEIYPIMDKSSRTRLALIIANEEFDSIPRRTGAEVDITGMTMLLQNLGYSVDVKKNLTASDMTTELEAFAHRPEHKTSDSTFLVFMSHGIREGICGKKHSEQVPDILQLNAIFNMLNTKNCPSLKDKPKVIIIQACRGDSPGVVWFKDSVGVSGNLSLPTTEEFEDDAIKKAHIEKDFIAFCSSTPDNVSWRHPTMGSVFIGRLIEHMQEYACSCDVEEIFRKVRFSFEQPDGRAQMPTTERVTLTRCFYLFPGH

[13] = test system: Caspase-1 (Homo sapiens), P29466 [C397A]; experiment: Binding affinity to recombinant caspase-1 C397A mutant (unknown origin) at 2 uM by SDS-PAGE analysis
Caspase-1 (Homo sapiens), P29466 [C397A], sequence (P29466 whole entry C397A, the tested form may be a part): as the sequence (P29466 whole entry C169A) above, with A169C, C397A counted along it

[14] = target: NACHT, LRR and PYD domains-containing protein 3 (Mus musculus) (UniProt Q8R4B8); experiment: Inhibition of NLRP3 inflammasome activation in LPS primed Casp1 knockout mouse BMDM cells transfected with caspase-1 C395A mutant assessed as reduction in IL-1beta release at 2 uM preincubated for 30 mins followed by nigericin stimulation; type: cell-based
J774.A1 [15] = experiment: Inhibition of pyroptosis in mouse J774.A1 cells assessed as reduction in LDH release at 0.5 to 2 uM pretreated with LPS for 3 hrs followed by compound addition in presence of nigericin; type: functional, cell-based; conditions: dose 0.5-2 µM
HEK293T [16] = experiment: Inhibition of recombinant caspae-1 C169A mutant (unknown origin) to GSDMD (unknown origin) interaction expressed in HEK293T cells; type: cell-based; conditions: Homo sapiens
HEK293T [17] = experiment: Inhibition of recombinant caspae-1 C270A mutant (unknown origin) to GSDMD (unknown origin) interaction expressed in HEK293T cells; type: cell-based; conditions: Homo sapiens
HEK293T [18] = experiment: Inhibition of recombinant caspae-1 C285A mutant (unknown origin) to GSDMD (unknown origin) interaction expressed in HEK293T cells; type: cell-based; conditions: Homo sapiens
[19] = Acute toxicity in Kunming mouse assessed as change in LDH level at 100 mg/kg, ip administered for 14 days; type: organism-based; conditions: in vivo, 336 h, time 14 day
Mus musculus [20] = experiment: Anti-inflammatory activity in MSU/C18:0 free fatty acid induced Kunming mouse model of gouty arthritis assessed as reduction NLRP3 expression at 5 to 20 mg/kg, ip preadministered with compound for 30 mins followed by MSU/C18:0 free fatty acid injection and measured after 24 hrs by Western blotting analysis; type: functional, organism-based; conditions: dose 5-20 mg/kg, time 24.5 hrs
Mus musculus [21] = experiment: Anti-inflammatory activity in MSU/C18:0 free fatty acid induced Kunming mouse model of gouty arthritis assessed as reduction p20 expression at 5 to 20 mg/kg, ip preadministered with compound for 30 mins followed by MSU/C18:0 free fatty acid injection and measured after 24 hrs by Western blotting analysis; type: functional, organism-based; conditions: dose 5-20 mg/kg, time 24.5 hrs
Mus musculus [22] = experiment: Anti-inflammatory activity in MSU/C18:0 free fatty acid induced ip dosed Casp1 knockout Kunming mouse model of gouty arthritis assessed as reduction in foot swelling preadministered with compound for 30 mins followed by MSU/C18:0 free fatty acid injection and measured after 24 hrs; type: functional, organism-based; conditions: time 24.5 hrs
Mus musculus [23] = experiment: Anti-inflammatory activity in MSU/C18:0 free fatty acid induced ip dosed Casp1 knockout Kunming mouse model of gouty arthritis assessed as reduction in IL-beta production preadministered with compound for 30 mins followed by MSU/C18:0 free fatty acid injection and measured after 24 hrs by ELISA; type: functional, organism-based; conditions: time 24.5 hrs

COc1ccc2c(c1)[C@]1(C=C[C@H](N=C=S)C[C@H]1C(=O)OC(C)(C)C)C(=O)N2C(=O)OCc1ccccc1
Activity (Caspase-1 (Homo sapiens)): 31% | inhibition [1]: Dose-Dependent Effect | Activity (J774.A1 [2]): Non-Toxic | inhibition [3]: Active | Activity (THP-1 [4]): inactive | inhibition (THP-1 [5]): Active | Activity (THP-1 [6]): inactive | inhibition (Caspase-3 (Mus musculus)): inactive | Activity (J774.A1 [7]): Active | inhibition (J774.A1 [8]): Active | inhibition (J774.A1 [9]): Active | inhibition (J774.A1 [10]): inactive | inhibition (J774.A1 [11]): Active | Activity [12]: Active | Activity [13]: inactive | inhibition [14]: inactive | inhibition (J774.A1 [15]): Active | inhibition (HEK293T [16]): Active | inhibition (HEK293T [17]): Active | inhibition (HEK293T [18]): inactive | Activity [19]: Non-Toxic | Activity (Mus musculus [20]): Active | Activity (Mus musculus [21]): Active | Activity (Mus musculus [22]): inactive | Activity (Mus musculus [23]): inactive
